Laboratory results: patent US20250066389A1, “HETEROCYCLIC AMIDES AND METHODS OF USING THE SAME” (Rgenta Therapeutics, Inc., priority 2021, published 2025)
Counter-ions that a name gives are not always drawn.

The compounds below were run on PMS1 (assay: Mini-Gene Reporter Assay—PMS1 (firefly luciferase mini-gene reporter transiently transfected into HEK293 cells)). Details: Homo sapiens; at 5 uM; mini-gene firefly luciferase reporter in HEK293 cells; read-out: PMS1 % Effect at 5 uM.
Type: cell-based
In short: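 HEK293 cells transiently transfected with a mini-gene construct (skipped exon with flanking introns/exons fused to firefly luciferase, pcDNA3.1) are incubated with compounds in duplicate. Exon inclusion raises luminescence; EC50 fitted by Levenberg-Marquardt; effect also scored at 5 μM.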

Compound | activation at 5 µM
CCOc1cc2nn(C)cc2cc1C(=O)Nc1cnc(N2CCC3CCCNC3C2)cn1 (stereo not drawn) [Compound 303] | 50 to 75%
CCOc1cc2nn(C)cc2cc1C(=O)Nc1cnc(NCC2CC3CCC2N3)cn1 (stereo not drawn) [Compound 304] | > 75%
CCOc1cc2nn(C)cc2cc1C(=O)Nc1cnc(N2CCNCC3(CC3)C2)cn1 [Compound 305] | > 75%
CCOc1cc2nn(C)cc2cc1C(=O)Nc1cnc(N[C@@H]2CNC[C@@H](OC)C2)cn1 [Compound 306] | < 50%
CCOc1cc2nn(C)cc2cc1C(=O)Nc1cnc(N[C@@H]2CNC[C@@H](F)C2)cn1 [Compound 307] | 50 to 75%
CCOc1cc2nn(C)cc2cc1C(=O)Nc1cnc(NC[C@H]2C[C@@](F)(CN)C2)cn1 [Compound 308] | < 50%
CCOc1cc2nn(C)cc2cc1C(=O)Nc1cnc(N2CC(O)(C3CCCN3)C2)cn1 (stereo not drawn) [Compound 309] | > 75%
CCOc1cc2nn(C)cc2cc1C(=O)Nc1cnc(NCCC2CC3CCC(C2)N3)cn1 (stereo not drawn) [Compound 310] | < 50%
CCOc1cc2nn(C)cc2cc1C(=O)Nc1cnc(NC(C)CC2CC3CCC(C2)N3)cn1 (stereo not drawn) [Compound 311] | < 50%
CCOc1cc2nn(C)cc2cc1C(=O)Nc1cnc(NC[C@H]2CNCC(C)(C)O2)cn1 [Compound 312] | < 50%
CCOc1cc2nn(C)cc2cc1C(=O)Nc1cnc(NC2CNCC3(CCC3)C2)cn1 (stereo not drawn) [Compound 313] | < 50%
CCOc1cc2nn(C)cc2cc1C(=O)Nc1cnc(N2C3CCCC2CNC3)cn1 [Compound 314] | < 50%
CCOc1cc2nn(C)cc2cc1C(=O)Nc1cnc(NC2CCC(C)NC2)cn1 (stereo not drawn) [Compound 315] | < 50%
CCOc1cc2nn(C)cc2cc1C(=O)Nc1cnc(N2CC(NC)C3(CC3)C2)cn1 (stereo not drawn) [Compound 316] | 50 to 75%
CCOc1cc2nn(C)cc2cc1C(=O)Nc1cnc(N2CCCC(NC)CC2)cn1 (stereo not drawn) [Compound 317] | < 50%
CCOc1cc2nn(C)cc2cc1C(=O)Nc1cnc(NCC2CNC(C)C2)cn1 (stereo not drawn) [Compound 318] | < 50%
CCOc1cc2nn(C)cc2cc1C(=O)Nc1cnc(NC2CCCNC2C)cn1 (stereo not drawn) [Compound 319] | < 50%
CCOc1cc2nn(C)cc2cc1C(=O)Nc1cnc(N2CC34CCCC3(CNC4)C2)cn1 (stereo not drawn) [Compound 320] | < 50%
CCOc1cc2nn(C)cc2cc1C(=O)Nc1cnc(N2CC(N)CC2C)cn1 (stereo not drawn) [Compound 321] | > 75%
CCOc1cc2nn(C)cc2cc1C(=O)Nc1cnc(NCC2C3CNCC32)cn1 (stereo not drawn) [Compound 322] | < 50%
CCOc1cc2nn(C)cc2cc1C(=O)Nc1cnc(NC2CNCC(C)C2)cn1 (stereo not drawn) [Compound 323] | < 50%

Compound | activation at 5 µM
CCOc1cc2nn(C)cc2cc1C(=O)Nc1cnc(NC2C=CCNC2)cn1 (stereo not drawn) [Compound 324] | < 50%
CCOc1cc2nn(C)cc2cc1C(=O)Nc1cnc(N2[C@H](CN)C[C@@H]3CCC[C@@H]32)cn1 [Compound 325] | < 50%
CCOc1cc2nn(C)cc2cc1C(=O)Nc1cnc(N2CC(N)C(C)(C)C2)cn1 (stereo not drawn) [Compound 326] | > 75%
CCOc1cc2nn(C)cc2cc1C(=O)Nc1cnc(NCC[C@@H]2C[C@H](OC)CN2)cn1 [Compound 327] | < 50%
CCOc1cc2nn(C)cc2cc1C(=O)Nc1cnc(NC(C)CNC)cn1 (stereo not drawn) [Compound 328] | < 50%
CCOc1cc2nn(C)cc2cc1C(=O)Nc1cnc(NCC2CCC3(CCNCC3)CC2)cn1 [Compound 329] | < 50%
CCOc1cc2nn(C)cc2cc1C(=O)Nc1cnc(N2CC(CO)C3(CNC3)C2)cn1 (stereo not drawn) [Compound 330] | < 50%
CCOc1cc2nn(C)cc2cc1C(=O)Nc1cnc(N2CC34CCCCC3(CNC4)C2)cn1 (stereo not drawn) [Compound 331] | < 50%
CCOc1cc2nn(C)cc2cc1C(=O)Nc1cnc(N2CCCNC(C)C2)cn1 (stereo not drawn) [Compound 332] | > 75%
CCOc1cc2nn(C)cc2cc1C(=O)Nc1cnc(NCC[C@H]2CCNC2)cn1 [Compound 333] | < 50%
CCOc1cc2nn(C)cc2cc1C(=O)Nc1cnc(NCc2ccc(CN3CCNCC3)cc2)cn1 [Compound 334] | < 50%
CCOc1cc2nn(C)cc2cc1C(=O)Nc1cnc(NCC2CCNCC2(F)F)cn1 (stereo not drawn) [Compound 335] | < 50%
CCOc1cc2nn(C)cc2cc1C(=O)Nc1cnc(N2CC3(CNCCO3)C2)cn1 [Compound 337] | < 50%
CCOc1cc2nn(C)cc2cc1C(=O)Nc1cnc(N2CCC(C3CCCN3)CC2)cn1 (stereo not drawn) [Compound 338] | > 75%
CCOc1cc2nn(C)cc2cc1C(=O)Nc1cnc(N2CCCC(NCCO)C2)cn1 (stereo not drawn) [Compound 339] | > 75%
CCOc1cc2nn(C)cc2cc1C(=O)Nc1cnc(N2CCC[C@H]3CNC[C@H]32)cn1 [Compound 340] | 50 to 75%
CCOc1cc2nn(C)cc2cc1C(=O)Nc1cnc(N2CCOC3(CCNC3)C2)cn1 (stereo not drawn) [Compound 341] | < 50%
CCOc1cc2nn(C)cc2cc1C(=O)Nc1cnc(N2C[C@@H](F)C[C@H]2CNC)cn1 [Compound 342] | < 50%
CCOc1cc2nn(C)cc2cc1C(=O)Nc1cnc(N2CCC3(CCCN3)CC2)cn1 [Compound 343] | > 75%
CCNCCN(CC)c1cnc(NC(=O)c2cc3cn(C)nc3cc2OCC)cn1 [Compound 344] | < 50%
CCOc1cc2nn(C)cc2cc1C(=O)Nc1cnc(NCC2CNCCOC2)cn1 (stereo not drawn) [Compound 347] | < 50%

Compound | activation at 5 µM
CCOc1cc2nn(C)cc2cc1C(=O)Nc1cnc(NC2CCNCC2C)cn1 (stereo not drawn) [Compound 348] | 50 to 75%
CCOc1cc2nn(C)cc2cc1C(=O)Nc1cnc(NCC2COCCN2)cn1 (stereo not drawn) [Compound 349] | < 50%
CCOc1cc2nn(C)cc2cc1C(=O)Nc1cnc(N2CCC3(CC2)CNCCO3)cn1 [Compound 350] | 50 to 75%
CCOc1cc2nn(C)cc2cc1C(=O)Nc1cnc(N2CCCNCC2C)cn1 (stereo not drawn) [Compound 351] | < 50%
CCOc1cc2nn(C)cc2cc1C(=O)Nc1cnc(N2CCC3(CCNCC3)C2)cn1 [Compound 352] | > 75%
CCOc1cc2nn(C)cc2cc1C(=O)Nc1cnc(N2CCCC(CCN)C2)cn1 (stereo not drawn) [Compound 353] | < 50%
CCOc1cc2nn(C)cc2cc1C(=O)Nc1cnc(NCC2CNCCO2)cn1 (stereo not drawn) [Compound 354] | < 50%
CCOc1cc2nn(C)cc2cc1C(=O)Nc1cnc(NC2CCNCC2F)cn1 (stereo not drawn) [Compound 355] | > 75%
CCOc1cc2nn(C)cc2cc1C(=O)Nc1cnc(NC(C)C2CCNCC2)cn1 (stereo not drawn) [Compound 356] | < 50%
CCOc1cc2nn(C)cc2cc1C(=O)Nc1cnc(N2CCOC3(CCNCC3)C2)cn1 [Compound 357] | < 50%
CCOc1cc2nn(C)cc2cc1C(=O)Nc1cnc(NCCC2CCCCN2)cn1 (stereo not drawn) [Compound 358] | 50 to 75%
CCOc1cc2nn(C)cc2cc1C(=O)Nc1cnc(NC[C@@H]2C[C@H]3CC[C@@H](C2)N3)cn1 [Compound 359] | < 50%
CCOc1cc2nn(C)cc2cc1C(=O)Nc1cnc(N2CCN[C@@H](C(C)C)C2)cn1 [Compound 360] | > 75%
CCOc1cc2nn(C)cc2cc1C(=O)Nc1cnc(N2CCC(NC)C2)cn1 (stereo not drawn) [Compound 361] | > 75%
CCOc1cc2nn(C)cc2cc1C(=O)Nc1cnc(NCCCN2CCNCC2)cn1 [Compound 362] | < 50%
CCOc1cc2nn(C)cc2cc1C(=O)Nc1cnc(N2C[C@H]3CNC[C@H]3C2)cn1 [Compound 363] | > 75%
CCOc1cc2nn(C)cc2cc1C(=O)Nc1cnc(NC[C@@H]2CCNC2)cn1 [Compound 364] | 50 to 75%
CCCNCCNc1cnc(NC(=O)c2cc3cn(C)nc3cc2OCC)cn1 [Compound 365] | > 75%
CCOc1cc2nn(C)cc2cc1C(=O)Nc1cnc(N[C@@H]2C[C@H]3CC[C@@H](C2)N3)cn1 [Compound 366] | > 75%
CCOc1cc2nn(C)cc2cc1C(=O)Nc1cnc(N[C@H]2C[C@H]3CC[C@@H](C2)N3)cn1 [Compound 367] | > 75%

Same assay, conditions: Homo sapiens; mini-gene firefly luciferase reporter in HEK293 cells

Compound | IC50
CCOc1cc2nc(C)cn2cc1C(=O)Nc1ccc(N2CC(NC)C2)nn1 [Compound 293] | 1000 to 10000 nM
CCOc1cc2nc(C)cn2cc1C(=O)Nc1ccc(N2CCCNCC2)nn1 [Compound 294] | < 1000 nM
CCOc1cc2nc(C)cn2cc1C(=O)Nc1ccc(N2CCNC(C)C2)nn1 (stereo not drawn) [Compound 295] | < 1000 nM
CCOc1cc2nc(C)cn2cc1C(=O)Nc1ccc(N2CC3(CC(NC)CO3)C2)nn1 (stereo not drawn) [Compound 296] | 1000 to 10000 nM
CCNC1COC2(C1)CN(c1ccc(NC(=O)c3cn4cc(C)nc4cc3OCC)nn1)C2 (stereo not drawn) [Compound 297] | 1000 to 10000 nM
CCOc1cc2nc(C)cn2cc1C(=O)Nc1ccc(N2CC3(CC(NC(C)C)CO3)C2)nn1 (stereo not drawn) [Compound 298] | 1000 to 10000 nM
CCOc1cc2nn(C)cc2cc1C(=O)Nc1ccc(N2CCN(C)[C@@H](C)C2)nn1 [Compound 299, (S)—N-(6-(3,4-dimethylpiperazin-1-yl)pyridazin-3-yl)-6-ethoxy-2-methyl-2H-indazole-5-carboxamide hydrochloride] | 1000 to 10000 nM
CCOc1cc2nn(C)cc2cc1C(=O)Nc1ccc(N2CCN(CC)[C@@H](C)C2)nn1 [Compound 300, (S)-6-ethoxy-N-(6-(4-ethyl-3-methylpiperazin-1-yl)pyridazin-3-yl)-2-methyl-2H-indazole-5-carboxamide hydrochloride] | 1000 to 10000 nM
CCOc1cc2nn(C)cc2cc1C(=O)Nc1ccc(N2CCN(C3CCOCC3)[C@@H](C)C2)nn1 [Compound 301, 6-ethoxy-2-methyl-N-{6-[(3S)-3-methyl-4-(oxan-4-yl)piperazin-1-yl]pyridazin-3-yl}-2H-indazole-5-carboxamide] | 1000 to 10000 nM
COc1cc2nc(C)cn2cc1C(=O)Nc1cc(C)c(N2CCN[C@@H](C)C2)nn1 [Compound 302, 7-methoxy-2-methyl-N-{5-methyl-6-[(3S)-3-methylpiperazin-1-yl]pyridazin-3-yl}imidazo[1,2-a]pyridine-6-carboxamide] | < 1000 nM
